# Measured values taken from patent US20130131069A1, “METHOD FOR TREATMENT OF SOLID MALIGNANCIES INCLUDING ADVANCED OR METASTATIC SOLID MALIGNANCIES” (Boehringer Ingelheim International GmbH, priority 2011, published 2013).
# Tests used:
# [1] = Clinical trial: pharmacokinetics in patients; format: in vivo, human; details: 2-hr i.v. infusion days 1 and 8 every 3 weeks
# Experimental: (§1) Sequential cohorts of 3-6 patients with advanced or metastatic solid malignancies received a 2-hr infusion of volasertib on days 1 and 8 every 3 weeks in a toxicity guided dose escalation study. There were 4 prespecified doses (50-200 mg).
# (§2) 27 Asian patients with advanced solid malignancies were treated. […] MTD was 150 mg for above described schedule. The median number of initiated courses was 3 over all dose groups (range 1-21). […] Two patients with bladder cancer and melanoma, respectively had partial responses.
# [2] = system: advanced or metastatic solid malignancies; assay: Clinical trial: toxicity guided dose escalation study, 2-hr infusion on days 1 and 8 every 3 weeks; format: in vivo
# Experimental: as §1, §2
# [3] = administered at two days during a 21 day treatment cycle
compound,measurement,setting,value
"CC[C@@H]1C(=O)N(C)c2cnc(Nc3ccc(C(=O)N[C@H]4CC[C@H](N5CCN(CC6CC6)CC5)CC4)cc3OC)nc2N1C(C)C [Volasertib, N-[trans-4-[4-(cyclopropylmethyl)-1-piperazinyl]cyclohexyl]-4-[[(7R)-7-ethyl-5,6,7,8-tetrahydro-5-methyl-8-(1-methylethyl)-6-oxo-2-pteridinyl]amino]-3-methoxy-benzamide]",PK behavior,[1],multi-compartmental
same,clearance,"[1]; human, in vivo, iv",807 mL/min
same,half-life,"[1]; human, in vivo, iv, read-out: mean terminal elimination half-life (converted)",107 h
same,Vd,"[1]; human, in vivo, iv, read-out: volume of distribution",4500 L
same,MTD,[2]; 2-hr infusion on days 1 and 8 of 21 day cycle,150 mg
same,"patients with partial responses (bladder cancer and melanoma, respectively)","[2]; 27 patients treated, days 1 and 8 every 3 weeks",Two
same,patients achieved partial response (preliminary anti-tumor activity),[2]; [3],1 patient
same,patients achieved stable disease,[2]; [3],10 patients
same,dose limiting toxicities (DLTs),"[2]; human, in vivo","reversible thrombocytopenia, neutropenia and febrile neutropenia"
